The target of one assay is α-glucosidase (Saccharomyces cerevisiae, UniProt P53341). The class given is biochemical. Particulars: at the tested concentration. On the procedure:
Enzyme inhibition studies were carried out spectrophotometrically in a 96-well microplate reader using a procedure reported by Li. A 60 µL reaction mixture, containing 20 µL of 100 mM phosphate buffer (pH 6.8), 20 µL of 2.5 mM p-NPG in the buffer, and 20 µL of PPT-14 dissolved in 10% DMSO, was added to each well. The enzymatic reaction was initiated by the addition of 20 µL of 10 mM phosphate buffer (pH 6.8), containing 0.2 U/mL α-glucosidase to each well. The plate was incubated at 37 °C for 15 min, and then 80 µL of 0.2 mol/L sodium carbonate solution was added to stop the reaction. Immediately after that, the absorbance was recorded at 405 nm using a VERSA max (Molecular Devices, Sunnyvale, CA, USA) microplate reader. Control samples contained the same reaction mixture, except that an equivalent volume of phosphate buffer was added instead of the sample solution. […] The inhibition (%) was calculated as (Ac − As)/Ac × 100%, where Ac was the absorbance of the control, and As was the absorbance of the sample.

The target in assay [1] is human recombinant aldose reductase (HRAR) (Homo sapiens, UniProt P15121). Briefly: Human recombinant aldose reductase (HRAR)-inhibitory activity assay (DL-glyceraldehyde substrate). The class given is biochemical.
Protocol: The reaction mixture was prepared as follows: we combined 100 µL of 0.15 mM nicotinamide adenine dinucleotide phosphate (NADPH), 100 µL of 10mM DL-glyceraldehyde as a substrate, and 5 µL of HRAR with the sample (final concentration of 100 µM for the test compound, dissolved in 100% DMSO) in a total volume of 1.0 mL of 100 mM sodium phosphate buffer (pH 6.2). The AR activity was determined by measuring the decrease in nicotinamide adenine dinucleotide phosphate (NADPH) absorption at 340 nm over a period of 1 min using an Ultrospec-2100pro UV–visible spectrophotometer with Microsoft™ Excel, control by SWIFT II software (Amersham Biosciences, Piscataway, NJ, USA). […] The inhibition percentage (%) was calculated as described for the assay of Renilla luciferase, except that the DA sample/min represented a reduction in absorbance for 1 min with the test samples and substrate. The HRAR-inhibitory activity of each sample was expressed in terms of the IC50 value (µM), which was calculated from the log–dose inhibition curve.
The nature of assay [2]: DPPH radical scavenging activity assay. Particulars: free radical scavenging. As to the method: The DPPH radical scavenging activity was evaluated using methods outlined in Blois (1958), with slight modifications. Different concentrations in 160 μL of MeOH (final concentration = 320 μg/mL for the extracts, fractions, and the compounds) were added to 40 μL of a DPPH:MeOH solution (1.5 × 10^−4 M). After gently mixing the sample and letting it stand at room temperature for 30 min, the optical density was measured at 520 nm using a VERSAmax microplate spectrophotometer (Molecular Devices). […] We used L-ascorbic acid as the positive control. The IC50 values presented here are expressed as the mean ± the standard error of the mean of triplicate experiments.
On the technique in general: Loss of DPPH colour is used to gauge radical scavenging.

For another assay, the target named is T1, PTP1B (Homo sapiens, UniProt P18031).
T1 sequence (P18031 1-435): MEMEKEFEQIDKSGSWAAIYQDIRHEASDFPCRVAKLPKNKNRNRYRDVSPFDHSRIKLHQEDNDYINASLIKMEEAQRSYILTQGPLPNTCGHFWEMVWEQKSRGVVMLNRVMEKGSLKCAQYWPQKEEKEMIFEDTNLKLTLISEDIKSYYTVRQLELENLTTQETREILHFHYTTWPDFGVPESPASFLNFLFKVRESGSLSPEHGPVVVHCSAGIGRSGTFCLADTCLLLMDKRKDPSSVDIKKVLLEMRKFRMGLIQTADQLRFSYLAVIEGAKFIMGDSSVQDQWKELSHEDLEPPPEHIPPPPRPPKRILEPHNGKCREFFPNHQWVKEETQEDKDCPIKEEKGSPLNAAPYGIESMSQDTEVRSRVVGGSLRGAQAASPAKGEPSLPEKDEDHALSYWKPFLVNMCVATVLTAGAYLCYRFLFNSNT
The assay is described as follows: PTP1B-inhibitory activity assay (p-NPP substrate). The format is biochemical. On the procedure: Following incubation at 37 °C for 30 min, the reaction was terminated with the addition of 10 M NaOH.

SMILES strings stand for the structures.

α-glucosidase, sequence (P53341 whole entry): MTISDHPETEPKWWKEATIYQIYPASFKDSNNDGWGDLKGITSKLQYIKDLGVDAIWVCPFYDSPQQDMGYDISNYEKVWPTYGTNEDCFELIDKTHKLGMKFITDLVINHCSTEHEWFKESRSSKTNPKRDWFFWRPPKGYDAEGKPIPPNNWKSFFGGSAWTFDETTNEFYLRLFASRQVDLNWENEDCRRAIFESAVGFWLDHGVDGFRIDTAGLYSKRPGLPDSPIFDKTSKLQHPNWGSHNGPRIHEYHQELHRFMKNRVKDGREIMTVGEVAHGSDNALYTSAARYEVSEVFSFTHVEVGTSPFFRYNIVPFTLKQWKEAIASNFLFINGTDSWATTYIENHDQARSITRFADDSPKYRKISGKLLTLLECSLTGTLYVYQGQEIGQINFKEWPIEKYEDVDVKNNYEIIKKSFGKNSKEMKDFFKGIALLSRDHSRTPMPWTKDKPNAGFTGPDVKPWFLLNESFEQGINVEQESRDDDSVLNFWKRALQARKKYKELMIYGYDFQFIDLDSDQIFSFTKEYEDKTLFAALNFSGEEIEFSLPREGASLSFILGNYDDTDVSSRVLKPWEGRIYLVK

On to `C[C@@](O)(C(=O)O)[C@H](O)COC(=O)/C=C/c1ccc(O)c(O)c1` [PPT-14, 4-O-caffeoyl-2-C-methyl-D-threonic acid], for which the α-glucosidase inhibitory activity result at α-glucosidase is “did not exhibit any α-glucosidase inhibitory activity”. Further, the IC50 (as a rule, the point on the concentration scale where inhibition reaches its midpoint) in assay [1] was found to be 19.5 ± 0.51 µM; in assay [2], 14.5 µM; against PTP1B, 64.92 ± 0.34 µM. The “DPPH IC50” value in assay [2] worked out at 4.5 µg/mL.

For the molecule `O=C1O[C@H]([C@@H](O)CO)C(O)=C1O` [Ascorbic acid, reference compound], in assay [2], the “DPPH IC50” value stood at 5.6 µg/mL and the concentration for half-maximal inhibition (IC50) was 31.8 µM.

The values above are taken from article PMC11818712, “Unveiling the Multitarget Potential of a Rare Caffeoyl Ester from Artemisia capillaris for Diabetes Mellitus: An Integrated In Vitro and In Silico Study” (International Journal of Molecular Sciences, 2025).
